Laboratory results from patent publication US10485235B2, “Aryloxypyrimidinyl ethers as herbicides” (FMC Corporation, priority 2015, dated 2019).

Tests used:
Format in all cases: in vivo
[1] = test system: barnyardgrass (Echinochloa crus-galli); experiment: Test A preemergence, barnyardgrass; conditions: Echinochloa crus-galli, pre-emergence, 240 h, Preemergence, 0 to 100 scale (0 no effect, 100 complete control), read-out: Plant response rating, Barnyardgrass; for pest or weed control at 125 g/ha: 125 g ai/ha; for pest or weed control at 500 g/ha: 500 g ai/ha
How it was run: (§1)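 Pre- and postemergence greenhouse screen in loam–sand soil. Test chemicals were delivered in a non-phytotoxic solvent with surfactant, preemergence as a directed spray onto seeded soil and postemergence onto 2–10 cm seedlings. Injury was judged by eye after ~10 days on a 0–100 scale.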

[2] = test system: pigweed (Amaranthus retroflexus); experiment: Test A preemergence, pigweed; conditions: Amaranthus retroflexus, pre-emergence, 240 h, Preemergence, 0 to 100 scale (0 no effect, 100 complete control), read-out: Plant response rating, Pigweed; for pest or weed control at 125 g/ha: 125 g ai/ha; for pest or weed control at 500 g/ha: 500 g ai/ha
How it was run: as §1

[3] = test system: blackgrass (Alopecurus myosuroides); experiment: Test A postemergence, blackgrass; conditions: Alopecurus myosuroides, post-emergence, 240 h, postemergence, 0 to 100 scale, 0 is no effect, 100 is complete control, approximately 10 days, read-out: Plant response rating, Blackgrass; for pest or weed control at 125 g/ha: 125 g ai/ha; for pest or weed control at 500 g/ha: 500 g ai/ha
How it was run: as §1

[4] = test system: sedge, umbrella (small-flower umbrella sedge, Cyperus difformis); experiment: Test B flooded paddy test, umbrella sedge; conditions: Cyperus difformis; 250 g ai/ha, Flood; visual rating after 13 to 15 days; scale 0 to 100, 0 is no effect, 100 is complete control; read-out: Plant response rating, Sedge, Umbrella
How it was run: (§2)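 Seedlings at the 2-leaf stage are flooded to 3 cm and treated via the paddy water. Greenhouse plants are compared with controls after 13 to 15 days and given a 0 (no effect) to 100 (complete control) rating.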

[5] = test system: foxtail, giant (giant foxtail, Setaria faberii); experiment: Test A postemergence, giant foxtail; conditions: Setaria faberi, post-emergence, 240 h, postemergence, 0 to 100 scale, 0 is no effect, 100 is complete control, approximately 10 days, read-out: Plant response rating, Foxtail, Giant; for pest or weed control at 125 g/ha: 125 g ai/ha; for pest or weed control at 500 g/ha: 500 g ai/ha
How it was run: as §1

[6] = test system: ragweed (common ragweed, Ambrosia elatior); experiment: Test A preemergence, ragweed; conditions: Ambrosia artemisiifolia, pre-emergence, 240 h, Preemergence, 0 to 100 scale (0 no effect, 100 complete control), read-out: Plant response rating, Ragweed; for pest or weed control at 125 g/ha: 125 g ai/ha; for pest or weed control at 500 g/ha: 500 g ai/ha
How it was run: as §1

[7] = test system: galium (catchweed bedstraw, Galium aparine); experiment: Test A postemergence, galium; conditions: Galium, post-emergence, 240 h, postemergence, 0 to 100 scale, 0 is no effect, 100 is complete control, approximately 10 days, read-out: Plant response rating, Galium; for pest or weed control at 125 g/ha: 125 g ai/ha; for pest or weed control at 500 g/ha: 500 g ai/ha
How it was run: as §1

[8] = test system: ducksalad (Heteranthera limosa); experiment: Test B flooded paddy test, ducksalad; conditions: Heteranthera limosa; 250 g ai/ha, Flood; visual rating after 13 to 15 days; scale 0 to 100, 0 is no effect, 100 is complete control; read-out: Plant response rating, Ducksalad
How it was run: as §2

[9] = test system: wheat (Triticum aestivum); experiment: Test A postemergence, wheat; conditions: Triticum aestivum, post-emergence, 240 h, postemergence, 0 to 100 scale, 0 is no effect, 100 is complete control, approximately 10 days, read-out: Plant response rating, Wheat; for plant injury at 125 g/ha: 125 g ai/ha; for plant injury at 500 g/ha: 500 g ai/ha
How it was run: as §1

[10] = test system: barnyardgrass (Echinochloa crus-galli); experiment: Test A postemergence, barnyardgrass; conditions: Echinochloa crus-galli, post-emergence, 240 h, postemergence, 0 to 100 scale, 0 is no effect, 100 is complete control, approximately 10 days, read-out: Plant response rating, Barnyardgrass; for pest or weed control at 125 g/ha: 125 g ai/ha; for pest or weed control at 500 g/ha: 500 g ai/ha
How it was run: as §1

[11] = test system: kochia (Kochia scoparia); experiment: Test A preemergence, kochia; conditions: Bassia scoparia, pre-emergence, 240 h, Preemergence, 0 to 100 scale (0 no effect, 100 complete control), read-out: Plant response rating, Kochia; for pest or weed control at 125 g/ha: 125 g ai/ha; for pest or weed control at 500 g/ha: 500 g ai/ha
How it was run: as §1

[12] = test system: ryegrass, Italian (Italian ryegrass, Lolium multiflorum); experiment: Test A postemergence, Italian ryegrass; conditions: Lolium multiflorum, post-emergence, 240 h, postemergence, 0 to 100 scale, 0 is no effect, 100 is complete control, approximately 10 days, read-out: Plant response rating, Ryegrass, Italian; for pest or weed control at 125 g/ha: 125 g ai/ha; for pest or weed control at 500 g/ha: 500 g ai/ha
How it was run: as §1

[13] = test system: kochia (Kochia scoparia); experiment: Test A postemergence, kochia; conditions: Bassia scoparia, post-emergence, 240 h, postemergence, 0 to 100 scale, 0 is no effect, 100 is complete control, approximately 10 days, read-out: Plant response rating, Kochia; for pest or weed control at 125 g/ha: 125 g ai/ha; for pest or weed control at 500 g/ha: 500 g ai/ha
How it was run: as §1

[14] = test system: corn (Zea mays); experiment: Test A postemergence, corn; conditions: Zea mays, post-emergence, 240 h, postemergence, 0 to 100 scale, 0 is no effect, 100 is complete control, approximately 10 days; for Corn plant response rating (crop injury, 0 = no effect, 100 = complete kill) at 125 g/ha: 125 g ai/ha; for Corn plant response rating (crop injury, 0 = no effect, 100 = complete kill) at 500 g/ha: 500 g ai/ha
How it was run: as §1

| SMILES | pest or weed control at 125 g/ha [1] [%] | pest or weed control at 125 g/ha [2] [%] | pest or weed control at 125 g/ha [3] [%] | pest or weed control at 250 g/ha [4] [%] | pest or weed control at 125 g/ha [5] [%] | pest or weed control at 125 g/ha [6] [%] | pest or weed control at 125 g/ha [7] [%] | pest or weed control at 250 g/ha [8] [%] | plant injury at 125 g/ha [9] [%] | pest or weed control at 125 g/ha [10] [%] | pest or weed control at 125 g/ha [11] [%] | pest or weed control at 125 g/ha [12] [%] | pest or weed control at 125 g/ha [13] [%] | Corn plant response rating (crop injury, 0 = no effect, 100 = complete kill) at 125 g/ha [14] [%] | pest or weed control at 500 g/ha [1] [%] | pest or weed control at 500 g/ha [2] [%] | pest or weed control at 500 g/ha [3] [%] | pest or weed control at 500 g/ha [5] [%] | pest or weed control at 500 g/ha [6] [%] | pest or weed control at 500 g/ha [7] [%] | other results |
| --- | --- | --- | --- | --- | --- | --- | --- | --- | --- | --- | --- | --- | --- | --- | --- | --- | --- | --- | --- | --- | --- |
| N#Cc1cccc(Oc2ncc(Cl)cn2)c1OC/C=C/C(F)(F)F [Compound 8, 3-[(5-chloro-2-pyrimidinyl)oxy]-2-[[(2E)-4,4,4-trifluoro-2-buten-1-yl]oxy]benzonitrile] | 100 | 100 | 40 | 100 | 90 | 0 | 90 | 75 | 10 | 60 | 100 | 60 | 100 | 20 | – | – | – | – | – | – | pest or weed control at 31 g/ha ([1]; 31 g ai/ha): 30%; pest or weed control at 31 g/ha ([2]; 31 g ai/ha): 100%; pest or weed control at 31 g/ha ([3]; 31 g ai/ha): 20%; pest or weed control at 31 g/ha ([5]; 31 g ai/ha): 20%; pest or weed control at 31 g/ha ([6]; 31 g ai/ha): 0%; pest or weed control at 31 g/ha ([7]; 31 g ai/ha): 40%; plant injury at 31 g/ha ([9]; 31 g ai/ha): 0%; pest or weed control at 31 g/ha ([10]; 31 g ai/ha): 20%; pest or weed control at 31 g/ha ([11]; 31 g ai/ha): 20%; pest or weed control at 31 g/ha ([12]; 31 g ai/ha): 10%; pest or weed control at 31 g/ha ([13]; 31 g ai/ha): 80%; Corn plant response rating (crop injury, 0 = no effect, 100 = complete kill) at 31 g/ha ([14]; 31 g ai/ha): 10% |
| N#Cc1cccc(Oc2ncc(Cl)cn2)c1OCC(F)(F)C(F)(F)F [Compound 10, 3-[(5-chloro-2-pyrimidinyl)oxy]-2-(2,2,3,3,3-pentafluoropropoxy)benzonitrile] | 100 | 100 | 90 | 85 | 100 | 20 | 90 | 70 | 30 | 90 | 100 | 30 | 100 | 70 | 100 | 100 | 100 | 100 | 10 | 100 | plant injury at 500 g/ha [9]: 90%; pest or weed control at 500 g/ha [10]: 100%; pest or weed control at 500 g/ha [11]: 100%; pest or weed control at 500 g/ha [12]: 90%; pest or weed control at 500 g/ha [13]: 100%; Corn plant response rating (crop injury, 0 = no effect, 100 = complete kill) at 500 g/ha [14]: 100% |
| CCCCOc1c(Br)cccc1Oc1ncc(Cl)cn1 [Compound 13, 2-[3-bromo-2-(butoxy)phenoxy]-5-chloropyrimidine] | 100 | 100 | 50 | 95 | 90 | 0 | 90 | 50 | 20 | 90 | 80 | 20 | 100 | 30 | 100 | 100 | 100 | 100 | 10 | 100 | plant injury at 500 g/ha [9]: 40%; pest or weed control at 500 g/ha [10]: 100%; pest or weed control at 500 g/ha [11]: 100%; pest or weed control at 500 g/ha [12]: 90%; pest or weed control at 500 g/ha [13]: 100%; Corn plant response rating (crop injury, 0 = no effect, 100 = complete kill) at 500 g/ha [14]: 90% |
